Experimental data reported in article PMC5047629, “Synthesis, Pharmacological Profile and Docking Studies of New Sulfonamides Designed as Phosphodiesterase-4 Inhibitors” (PLoS ONE, 2016).

Experiments:
[1] = system: guinea-pig tracheal smooth muscle cells; test: cAMP intracellular levels in airway smooth muscle cells (radioimmunoassay); format: cell-based; details: 100 μM, S1B Fig
Procedure: Intracellular cAMP concentrations were assayed in primary cultured guinea-pig tracheal smooth muscle cells as reported. Briefly, smooth muscle cells obtained from guinea pig tracheas were cultured in DMEM containing 10% fetal bovine serum, 100 units/ml of penicillin, […] of streptomycin and 2 mM of glutamine for 3 to 7 days. After the third cell splitting, 10^6 cells/well were grown in 24-well plates. At confluence, smooth muscle cells were washed with PBS and incubated with 100 μM LASSBio-448 or forskolin (adenylyl cyclase activator), in the presence or absence of 100 μM SQ22536 (adenylyl cyclase inhibitor) for 30 min. Lysed cells were collected and the intracellular cAMP was evaluated by means of radioimmunoassay (TRK 432–Cyclic AMP^[3H] Biotrak assay system—Amersham Pharmacia Biotech, Buckinghamshire, England) following manufacturer’s guidelines.

PDEs5-11 = test: PDE selectivity profile evaluated by CEREP; format: biochemical, human; details: 10 μM; data not shown
Procedure: (§1) The selectivity profile of compound 6a (LASSBio-448) toward the human PDE1, PDE2, PDE5-PDE8, PDE10 and PDE11 was evaluated by CEREP.

PDE4B = biological target: T1, PDE4B (Homo sapiens, UniProt Q07343); test: PDE4B inhibition, IMAP fluorescence polarization protocol; format: biochemical
T1 construct: purchased MDS PHARMA
T1 sequence (Q07343 whole entry): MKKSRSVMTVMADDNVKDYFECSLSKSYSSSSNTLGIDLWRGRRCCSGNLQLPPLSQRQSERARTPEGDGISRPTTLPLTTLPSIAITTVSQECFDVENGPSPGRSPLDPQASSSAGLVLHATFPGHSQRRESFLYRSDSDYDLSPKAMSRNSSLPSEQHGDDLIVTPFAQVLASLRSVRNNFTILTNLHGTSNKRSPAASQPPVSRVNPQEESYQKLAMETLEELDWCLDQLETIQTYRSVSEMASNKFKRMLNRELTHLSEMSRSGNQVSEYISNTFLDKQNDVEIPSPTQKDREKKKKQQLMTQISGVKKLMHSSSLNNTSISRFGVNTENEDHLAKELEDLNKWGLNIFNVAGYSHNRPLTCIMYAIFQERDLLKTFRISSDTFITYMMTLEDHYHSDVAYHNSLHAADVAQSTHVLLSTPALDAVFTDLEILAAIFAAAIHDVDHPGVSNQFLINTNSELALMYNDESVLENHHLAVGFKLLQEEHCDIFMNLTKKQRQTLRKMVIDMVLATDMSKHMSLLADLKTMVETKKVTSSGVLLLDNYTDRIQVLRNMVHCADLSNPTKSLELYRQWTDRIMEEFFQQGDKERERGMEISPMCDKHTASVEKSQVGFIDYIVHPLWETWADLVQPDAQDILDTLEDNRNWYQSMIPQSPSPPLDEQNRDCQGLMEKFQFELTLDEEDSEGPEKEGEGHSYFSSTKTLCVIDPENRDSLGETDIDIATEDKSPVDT
Procedure: (§2) The enzymatic reactions were carried at room temperature in a 96-well black plate by co-incubating 25 μL of 200 nM FAM-cAMP (R7513), 5 μL of putative inhibitory compounds and 20 μL of the PDE4 isoform dissolved in assay buffer (R7364) for 1 h. All enzymes were obtained from human recombinant sources (MDS PHARMA), whereas the other reagents were purchased from Molecular Devices. […] PDE4 inhibitors were dissolved in dimethyl sulfoxide (DMSO) at a final concentration of 0.1%.
(§3) The inhibitory activities of the new sulfonamide derivatives were evaluated for their selectivity against the four isoforms of human PDE4, i.e. PDE4A, PDE4B, PDE4C, and PDE4D, using an IMAP-FP protocol.

PDE2A = biological target: T2, PDE2A (Homo sapiens, UniProt O00408); test: PDE selectivity profile evaluated by CEREP; format: biochemical; details: 10 μM; data not shown
T2 construct: CEREP
T2 sequence (O00408 whole entry): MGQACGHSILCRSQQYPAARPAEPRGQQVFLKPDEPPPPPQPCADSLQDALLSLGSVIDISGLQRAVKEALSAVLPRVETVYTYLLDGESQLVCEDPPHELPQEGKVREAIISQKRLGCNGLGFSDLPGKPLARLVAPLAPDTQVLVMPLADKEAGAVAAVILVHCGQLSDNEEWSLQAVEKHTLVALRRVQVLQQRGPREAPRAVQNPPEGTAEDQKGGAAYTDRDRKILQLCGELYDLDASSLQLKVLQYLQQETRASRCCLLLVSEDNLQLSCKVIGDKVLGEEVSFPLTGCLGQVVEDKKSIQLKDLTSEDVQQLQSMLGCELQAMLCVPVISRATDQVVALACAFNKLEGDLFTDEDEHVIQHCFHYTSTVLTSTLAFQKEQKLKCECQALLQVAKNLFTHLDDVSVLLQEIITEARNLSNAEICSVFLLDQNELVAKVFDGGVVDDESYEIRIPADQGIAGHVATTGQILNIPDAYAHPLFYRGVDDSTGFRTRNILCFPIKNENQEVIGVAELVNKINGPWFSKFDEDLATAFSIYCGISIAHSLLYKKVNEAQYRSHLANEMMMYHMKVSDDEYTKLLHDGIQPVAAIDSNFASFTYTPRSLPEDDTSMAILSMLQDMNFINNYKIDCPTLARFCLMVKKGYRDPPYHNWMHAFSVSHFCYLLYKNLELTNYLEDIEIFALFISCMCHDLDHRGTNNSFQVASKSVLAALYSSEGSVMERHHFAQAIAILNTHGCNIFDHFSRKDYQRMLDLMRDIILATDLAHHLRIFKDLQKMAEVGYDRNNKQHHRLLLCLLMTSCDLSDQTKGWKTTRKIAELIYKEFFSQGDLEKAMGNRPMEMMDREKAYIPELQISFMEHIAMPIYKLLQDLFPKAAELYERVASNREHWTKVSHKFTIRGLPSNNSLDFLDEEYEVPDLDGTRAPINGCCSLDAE
Procedure: as §1

PDE1B = biological target: T3, PDE1B (Homo sapiens, UniProt Q01064); test: PDE selectivity profile evaluated by CEREP; format: biochemical; details: 10 μM; data not shown
T3 construct: CEREP
T3 sequence (Q01064 whole entry): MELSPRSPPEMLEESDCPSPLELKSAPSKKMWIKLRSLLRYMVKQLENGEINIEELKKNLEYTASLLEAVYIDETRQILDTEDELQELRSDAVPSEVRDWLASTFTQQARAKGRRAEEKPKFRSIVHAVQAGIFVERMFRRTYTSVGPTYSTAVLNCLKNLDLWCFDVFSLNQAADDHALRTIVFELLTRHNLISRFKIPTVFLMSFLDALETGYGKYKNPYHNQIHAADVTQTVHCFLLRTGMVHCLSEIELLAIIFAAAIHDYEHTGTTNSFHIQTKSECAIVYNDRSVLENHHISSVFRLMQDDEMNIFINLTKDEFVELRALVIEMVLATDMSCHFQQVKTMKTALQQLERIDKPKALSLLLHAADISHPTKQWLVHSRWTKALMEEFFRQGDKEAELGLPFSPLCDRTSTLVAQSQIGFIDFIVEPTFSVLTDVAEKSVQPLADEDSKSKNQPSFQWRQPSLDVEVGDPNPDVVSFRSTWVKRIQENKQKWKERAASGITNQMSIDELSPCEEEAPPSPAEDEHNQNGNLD
Procedure: as §1

PDE4C = biological target: T4, PDE4C (Homo sapiens, UniProt Q08493); test: PDE4C inhibition, IMAP fluorescence polarization protocol; format: biochemical
T4 construct: purchased MDS PHARMA
T4 sequence (Q08493 whole entry): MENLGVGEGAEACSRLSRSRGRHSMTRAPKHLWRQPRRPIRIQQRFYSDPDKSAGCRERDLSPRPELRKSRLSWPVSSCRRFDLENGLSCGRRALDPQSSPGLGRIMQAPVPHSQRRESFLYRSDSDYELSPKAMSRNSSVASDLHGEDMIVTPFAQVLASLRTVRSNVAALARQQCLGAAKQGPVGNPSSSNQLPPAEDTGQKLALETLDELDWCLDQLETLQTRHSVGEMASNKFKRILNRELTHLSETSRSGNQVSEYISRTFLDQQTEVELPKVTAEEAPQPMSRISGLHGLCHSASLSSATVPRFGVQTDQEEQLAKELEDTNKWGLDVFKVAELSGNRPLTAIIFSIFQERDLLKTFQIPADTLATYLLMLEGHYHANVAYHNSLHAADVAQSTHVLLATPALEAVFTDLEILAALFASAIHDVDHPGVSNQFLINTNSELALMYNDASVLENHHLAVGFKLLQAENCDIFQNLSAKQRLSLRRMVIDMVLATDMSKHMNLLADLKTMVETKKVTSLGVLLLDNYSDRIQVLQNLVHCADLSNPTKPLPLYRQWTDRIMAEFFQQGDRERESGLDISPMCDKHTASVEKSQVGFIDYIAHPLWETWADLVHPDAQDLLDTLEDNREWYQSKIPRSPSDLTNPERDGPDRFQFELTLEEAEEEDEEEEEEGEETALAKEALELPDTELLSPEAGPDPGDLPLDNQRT
Procedure: as §2, §3

A/J mice = test: LPS-induced lung inflammation and airway hyper-reactivity; format: in vivo; details: LASSBio-448 2.5 and 10 mg/kg oral, cilomilast 1 mg/kg oral, 1 h before LPS, 24 h post-challenge
Procedure: A/J mice were anesthetized with isoflurane aerosol and then challenged with LPS (25μg/25 μL) or phosphate buffered solution (PBS) by intranasal instillation as reported. The analyses were performed 24 h after stimulation. Treatment with LASSBio-448 (2.5–10 mg/kg/mice) or cilomilast (1 mg/kg) was performed orally, 1 h before LPS exposure. LASSBio-448 was dissolved in 0.2% Tween 80, while cilomilast was dissolved in 1 M NaOH and further neutralized with 1 N HCl, before adjusting the final volume with 0.9% NaCl solution (saline). The substances were dissolved immediately before use.
Airflow and transpulmonary pressure were recorded with a Buxco pulmonary mechanics processing system (Buxco Electronics, Sharon, CT), which calculated resistance (cmH2O.s/ml) and dynamic lung compliance (mL/cmH2O) in each breath cycle. Elastance was calculated as the inverse of compliance values. Mice were anesthetized with nembutal (60 mg/kg), and the neuromuscular activity was blocked with bromide pancuronium (1 mg/kg). Animals were allowed to stabilize for 5 min and increasing concentrations of methacholine (3–27 mg/mL) were aerosolized for 5 min each. Baseline pulmonary parameters were assessed with aerosolized phosphate buffer solution (PBS).
The MPO activity present in the lung tissue was colorimetrically determined as described by Hirano (1996), with minor changes. Briefly, after lung perfusion with 20 mM EDTA in 0.9% saline, lung samples were homogenized in Hank´s balanced solution (HBSS) at pH 7.4. The homogenates were centrifuged for 10 min at 1300 xg and 4°C. Red blood cells were removed by hypotonic and hypertonic lysis and suspended cells were re-centrifuged as described above. The pellet was then suspended in HBSS at pH 7.4 containing 0.5% hexadecyltrimethyl ammonium bromide (HTAB). The homogenates were centrifuged for 30 min at 12500 xg and 4°C. The supernatants were then collected and incubated with 0.167 mg/mL of ortho-dianisidine dihydrochloride for 15 min at 37°C, after which 0.0006% H2O2 in 50 mM phosphate buffer at pH 6 was added. The reaction was stopped 10 min later by adding 50 μL of 1% sodium azide. The measurement was done at 460 nm using the SpectraMax M5 microplate reader (Molecular Devices).

[2] = 1 μM, mean ± SEM, 3 experiments
[3] = recombinant enzyme, mean ± SEM of three measurements

COc1ccc(CCNS(=O)(=O)c2cc3c(cc2C)OCO3)cc1OC [6a (LASSBio-448), N-(3,4-dimethoxyphenethyl)-6-methylbenzo[d][1, 3]dioxole-5-sulfonamide]
cAMP intracellular levels in cultured tracheal smooth muscle cells ([1]; levels comparable to forskolin): up-regulated | cAMP elevating effect after pre-treatment with SQ22,536 ([1]; pre-treatment with 100 μM SQ22,536): clearly abrogated | inhibition of PDEs5-11 (PDEs5-11): unable to inhibit | PDE4B1 inhibition (PDE4B; [2]): able to inhibit | inhibition at 1 µM (PDE4B; 1 μM, mean ± SEM, 3 experiments, read-out: PDE4B1 inhibition): 31 ± 1.1% | IC50 (PDE4B; [3]): 1.4 ± 0.09 µM | inhibition of PDE2A (PDE2A): unable to inhibit | inhibition of PDE1B (PDE1B): unable to inhibit | PDE4C inhibition (PDE4C; [2]): able to inhibit | inhibition at 1 µM (PDE4C; [2]): 33.7 ± 0.4% | IC50 (PDE4C; [3]): 1.1 ± 0.13 µM | LPS-induced airway hyper-reactivity (lung elastance after methacholine 3–27 mg/ml) (A/J mice; Fig 9A): dose-dependently prevented | neutrophil infiltration into the lung tissue (MPO activity) (A/J mice; Fig 9B): marked reduction
